# Source: patent publication US6060241A (priority 1997, dated 2000)
# Key:
# [1] = biological target: T1, Hp 3-oxoacid CoA-transferase (Helicobacter pylori, UniProt P56006+P56007); assay: 3-oxoacid CoA transferase activity reconstituted in E. coli, in the presence of inhibitors; assay type: biochemical; conditions: for Specific activity (mU/mg ± SD), 3-oxoacid CoA transferase, E. coli transformed with pCOA-t: substances (50 nM), lysate of E. coli transformed with pCoA-t, none = 2255 ± 7; for inhibition of Hp CoA-transferase (in words): statement that refers to Example 11
# T1 construct: second column endogenous enzyme in H. pylori lysate
# Method: For 3-oxoadipate-CoA and 3-oxoacid CoA-transferase assays (FIGS. 7A, 7B, and 7C), E. coli cells transformed with pCoAT, which contains A^73 TGAA-TATAG^1394 of SEQ ID NO.:1 or with pUrea a plasmid containing the gene for urease (Labigne et al., J. Bacteriol. 173:1920-1931 (1991)) as a negative control, were washed once with M9 salts minimal medium (Molecular Cloning, a laboratory manual, Sambrook, Fritsch and Maniatis, second edition), pellets were stored at -20° C. until just prior to disruption. Thawed cell pellets were resuspended in 1 ml 50 mM phosphate buffer (pH 6.8), 1 mM dithiothreitol (Merck). Cell suspensions were disrupted by sonication and cellular debris removed by centrifugation. For butyrate-acetoacetate-CoA-transferase assays, the buffer used for cell wash and pellets resuspension was: 50 mM MOPS (pH 7.0), 0.5 M (NH4)2SO4, 20% (v/v) glycerol, 1 mM EDTA. Protein concentration in cellular extracts was determined by Bradford's method (1976) using γ globulin as standard (Bio-Rad) and activity expressed in U/mg of protein.
# (§1) Activity was measured by monitoring the increase in A310 corresponding to the formation of acetoacetyl-CoA, as previously described (Howard et al., 1986). The assay contained 67 mM acetoacetate (Aldrich), 300 μM succinyl-CoA and 15 mM MgCl2 in 50 mM Tris-HCl pH 9.1. Under the experiment conditions, ε=7,800 M^-1 cm^-1.
# (§2) The activity assay was performed as described in Example 8 in the presence of the indicated inhibitors. The results are presented below in Table 6
# [2] = biological target: T1, Hp 3-oxoacid CoA-transferase; assay: 3-oxoacid CoA transferase activity endogenous in H. pylori lysates, in the presence of inhibitors; assay type: biochemical; conditions: substances (50 nM); endogenous enzyme in H. pylori lysate; none = 25 ± 1
# Method: as §1
# (§3) The activity assay was performed as described in Example 8, using H. pylori cell lysates.
# as §2
# [3] = biological target: T2, acetoacetyl CoA thiolase (Helicobacter pylori, UniProt O25399); assay: biochemical; assay type: biochemical
# T2 construct: mouse-adapted P49 used for mutants
# Method: as §1, §3
# The only CoA-transferase activity detected in H. pylori lysates was the one leading to the formation of acetoacetyl CoA from succinyl CoA and acetoacetate in the presence of Mg^2+.
# [4] = biological target: 3 oxo acid CoA-transferase (Helicobacter pylori, UniProt P56006+P56007); assay: Reverse reaction of CoA-transferase, disappearance of acetoacetyl CoA at 310 nm; assay type: biochemical; conditions: Hp 69A + 2 mM iodoacetamide; Hp 69A alone = 227 ± 4
# From the text: As described above, CoA-transferase also catalyzes the reverse reaction, acetoacetyl CoA+succinate→acetoacetate+succinyl CoA. This additional 3-oxoacid CoA-transferase activity is examined in transformed E. coli and H. pylori by measuring the disappearance of acetoacetyl CoA at 310 nm.
# [5] = biological target: mammalian CoA-transferase (Homo sapiens, UniProt P55809); assay: Effect on the mammalian CoA-transferase; conditions: statement that refers to Example 11; no mammalian data printed
# Chain of mammalian CoA-transferase (P55809 40-520): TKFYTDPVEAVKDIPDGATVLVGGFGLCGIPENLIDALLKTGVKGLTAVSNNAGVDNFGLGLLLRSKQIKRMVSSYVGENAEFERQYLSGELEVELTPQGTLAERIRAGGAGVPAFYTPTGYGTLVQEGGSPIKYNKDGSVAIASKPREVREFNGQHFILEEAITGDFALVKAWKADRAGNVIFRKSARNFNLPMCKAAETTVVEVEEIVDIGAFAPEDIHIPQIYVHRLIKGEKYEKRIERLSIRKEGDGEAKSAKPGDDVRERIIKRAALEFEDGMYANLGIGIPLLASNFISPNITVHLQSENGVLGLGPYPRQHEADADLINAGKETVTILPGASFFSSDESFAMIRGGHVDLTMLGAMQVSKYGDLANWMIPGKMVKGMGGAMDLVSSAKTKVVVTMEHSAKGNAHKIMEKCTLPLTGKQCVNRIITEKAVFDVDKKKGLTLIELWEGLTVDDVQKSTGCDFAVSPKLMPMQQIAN
# T1 sequence (P56006 whole entry): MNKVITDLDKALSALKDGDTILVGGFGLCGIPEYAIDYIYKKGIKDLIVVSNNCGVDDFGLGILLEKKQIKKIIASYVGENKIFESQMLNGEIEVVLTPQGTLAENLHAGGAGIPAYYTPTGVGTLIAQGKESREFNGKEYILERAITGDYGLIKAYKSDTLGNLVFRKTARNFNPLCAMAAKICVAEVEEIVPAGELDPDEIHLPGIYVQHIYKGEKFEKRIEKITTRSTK
# T1 sequence (P56007 whole entry): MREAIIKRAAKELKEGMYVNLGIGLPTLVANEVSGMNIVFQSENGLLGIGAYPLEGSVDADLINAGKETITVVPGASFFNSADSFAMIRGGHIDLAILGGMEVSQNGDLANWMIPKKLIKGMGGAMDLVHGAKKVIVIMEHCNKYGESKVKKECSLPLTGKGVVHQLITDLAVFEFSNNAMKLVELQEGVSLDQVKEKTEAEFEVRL
# T2 sequence (O25399 entry or part of it): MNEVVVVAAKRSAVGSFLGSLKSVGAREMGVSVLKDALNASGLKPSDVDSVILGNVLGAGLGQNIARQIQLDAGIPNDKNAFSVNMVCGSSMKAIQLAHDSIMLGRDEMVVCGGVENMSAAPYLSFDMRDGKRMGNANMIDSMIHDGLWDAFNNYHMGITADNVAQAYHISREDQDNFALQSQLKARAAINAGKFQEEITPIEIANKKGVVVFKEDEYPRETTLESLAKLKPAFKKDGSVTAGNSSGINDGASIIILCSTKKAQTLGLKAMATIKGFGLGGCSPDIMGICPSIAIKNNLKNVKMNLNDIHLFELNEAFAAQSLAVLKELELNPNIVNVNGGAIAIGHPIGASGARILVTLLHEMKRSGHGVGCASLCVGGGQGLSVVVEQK
# Chain of 3 oxo acid CoA-transferase (P56007 whole entry): as the sequence (P56007 whole entry) above
# Chain of 3 oxo acid CoA-transferase (P56006 whole entry): as the sequence (P56006 whole entry) above
Compound,"Specific activity (mU/mg ± SD), 3-oxoacid CoA transferase, E. coli transformed with pCOA-t [1] [mU/mg]","Specific activity (mU/mg ± SD), 3-oxoacid CoA transferase, H pytori [2] [mU/mg]","CoA transferase specific activity ([3]; 2 mM iodoacetamide, H. pylori lysate, 25±2 mU/mg without iodoacetamide) [mU/mg]",fold induction at 2000 µM ([3]; read-out: increase of CoA transferase specific activity),"Specific activity (mU/mg), reverse reaction [4] [mU/mg]",inhibition of Hp CoA-transferase (in words) [1],inhibition of the mammalian homologue (in words) [5]
O=C(O)CC(=O)O [disodium malonate],1823 ± 162,27 ± 4,,,,,
O=C(O)CCCC(=O)O [glutaric acid],31 ± 7,16 ± 5,,,,,
NC(=O)CI [iodoacetamide],,,60±2,2.5,257 ± 0,,
O=C(O)CC(S)C(=O)O (stereo not drawn) [mercapto succinic acid],16 ± 13,2 ± 2,,,,inhibit Hp CoA-transferase,not the mammalian homologue
CC(CC(=O)O)C(=O)O (stereo not drawn) [methyl succinic acid],67 ± 51,0 ± 1,,,,inhibit Hp CoA-transferase,not the mammalian homologue
COC(=O)CCC(=O)O [methyl succinic ester],58 ± 49,14 ± 3,,,,,
N[C@@H](CC(=O)O)C(=O)[O-].[Na+] [monosodium aspartate],1859 ± 151,24 ± 1,,,,,
O=C(O)CC(O)C(=O)O (stereo not drawn) [monosodium malate],131 ± 0,22 ± 8,,,,,
